The numbers were not newly measured in patent publication WO2005058299A1, “Phenethanolamine derivatives for treatment of respiratory diseases” (Glaxo Group Ltd, priority 2003, dated 2005), which cites them from elsewhere.

Bounds are passed on as bounds.

For this series, the system named is PDE4. Conditions: IC50 for PDE4 form which binds rolipram with high affinity divided by IC50 for form which binds rolipram with low affinity.
For “c/s-[4-cyano-4-(3-cyclopropylmethoxy-4- difluoromethoxyphenyl)cyclohexan-1-ol]”, the IC50 ratio is reported as at least 0.1.
Turning to `COc1ccc([C@]2(C#N)CC[C@@H](C(=O)O)CC2)cc1OC1CCCC1` [cis 4-cyano-4-(3-cyclopentyloxy-4-methoxyphenyl)cyclohexan-1-carboxylic acid], the IC50 ratio is at least 0.1.
Take `COC(=O)C1CC(C#N)(c2ccc(OC(F)F)c(OCC3CC3)c2)CCC1=O` (stereo not drawn) [2-carbomethoxy-4-cyano-4-(3-cyclopropylmethoxy-4-difluoromethoxyphenyl)cyclohexan-1-one]: the IC50 ratio was at least 0.1.
